As a reminder, the IC50 is the concentration at which inhibition is half-maximal. By viability, T/C is commonly meant the ratio of treated to control.

Several values for one entry are separate records, joined by “and”; a condition that tells them apart may be missing. Equal values may be shown once.

This test deals with 282377-053-R-J1-PDC complex spheroid viability. Nature of the test: Anticancer human tumor 282377-053-R-J1-PDC patient-derived colon adenocarcinoma cell line growth inhibition [RAS]. Particulars: for viability, T/C: stronger effect = lower value. A digest of the protocol:
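Agents were tested in combination matrices in half-log decrements from a top concentration at or near clinical Cmax (10 microM if undetermined). Targets were multi-cell spheroids of tumour lines plus HUVEC and MSC stromal cells.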
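Note: spheroids exposed to agents for seven days before readout.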
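Throughout, for viability, T/C: luminescence viability as percent of DMSO vehicle control wells.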

For `C=CC(=O)N1CCN(c2nc(OCC3CCCN3C)nc3c(F)c(-c4nc(N)cc(C)c4C(F)(F)F)c(Cl)cc23)C(C)C1` (stereo unspecified) + C#Cc1c(F)ccc2cc(O)cc(-c3ncc4c(N5CC6CCC(C5)N6)nc(OCC56CCCN5CC(F)C6)nc4c3F)c12, the IC50 is above 1 µM (curve of first compound, second compound 0.0316 µM); above 1 µM (curve of first compound, second compound 0.1 µM); above 1 µM (curve of first compound, second compound 0.316 µM); above 1 µM (curve of first compound, second compound 1 µM); above 1 µM (curve of first compound, second compound 3.16 µM); above 1 µM (curve of first compound, second compound 10 µM). Also, the viability, T/C (second compound 0.0316 µM, first compound 0.00316 µM) is 111%; the viability, T/C (second compound 0.0316 µM, first compound 0.01 µM) is 128%; the viability, T/C (second compound 0.0316 µM, first compound 0.0316 µM) is 132%; the viability, T/C (second compound 0.0316 µM, first compound 0.1 µM) was 108%; the viability, T/C (second compound 0.0316 µM, first compound 0.316 µM) was 107%; the viability, T/C (second compound 0.0316 µM, first compound 1 µM) is 123%. In addition, the viability, T/C is, setting by setting: (second compound 0.1 µM, first compound 0.00316 µM) 98.7%; (second compound 0.1 µM, first compound 0.01 µM) 96.9%; (second compound 0.1 µM, first compound 0.0316 µM) 97.2%; (second compound 0.1 µM, first compound 0.1 µM) 96.4%; (second compound 0.1 µM, first compound 0.316 µM) 91.6%; (second compound 0.1 µM, first compound 1 µM) 84.4%. Also, the viability, T/C was 106% (second compound 0.316 µM, first compound 0.00316 µM); 105% (second compound 0.316 µM, first compound 0.01 µM); 91% (second compound 0.316 µM, first compound 0.0316 µM); 99.5% (second compound 0.316 µM, first compound 0.1 µM); 96.7% (second compound 0.316 µM, first compound 0.316 µM); 104% (second compound 0.316 µM, first compound 1 µM). Moreover, the viability, T/C was 99.6% (second compound 1 µM, first compound 0.00316 µM); 90.9% (second compound 1 µM, first compound 0.01 µM); 92.8% (second compound 1 µM, first compound 0.0316 µM); 90.6% (second compound 1 µM, first compound 0.1 µM); 118% (second compound 1 µM, first compound 0.316 µM); 97.5% (second compound 1 µM, first compound 1 µM). For the same molecule, the viability, T/C reads like this: (second compound 3.16 µM, first compound 0.00316 µM) 91.1%; (second compound 3.16 µM, first compound 0.01 µM) 109%; (second compound 3.16 µM, first compound 0.0316 µM) 107%; (second compound 3.16 µM, first compound 0.1 µM) 98.6%; (second compound 3.16 µM, first compound 0.316 µM) 108%; (second compound 3.16 µM, first compound 1 µM) 123%. Also, the viability, T/C by setting is: (second compound 10 µM, first compound 0.00316 µM) 100%; (second compound 10 µM, first compound 0.01 µM) 112%; (second compound 10 µM, first compound 0.0316 µM) 116%; (second compound 10 µM, first compound 0.1 µM) 102%; (second compound 10 µM, first compound 0.316 µM) 85.1%; (second compound 10 µM, first compound 1 µM) 107%.

`CC(=O)OC12COC1CC(O)C1(C)C(=O)C(O)C3=C(C)C(OC(=O)C(O)C(NC(=O)OC(C)(C)C)c4ccccc4)CC(O)(C(OC(=O)c4ccccc4)C21)C3(C)C` (stereo unspecified) + CCn1c(-c2cccnc2C(C)OC)c2c3cc(ccc31)N1CCOC(CC(NC(=O)C(C(C)C)N(C)C(=O)C3(F)CCN(C(=O)C#CC(C)(C)N(C)C)CC3)C(=O)N3CCCC(N3)C(=O)OCC(C)(C)C2)C1: the IC50 is below 0.0316 µM (curve of first compound, second compound 0.000949 µM); below 0.0316 µM (curve of first compound, second compound 0.003 µM); below 0.0316 µM (curve of first compound, second compound 0.00949 µM); below 0.0316 µM (curve of first compound, second compound 0.03 µM); below 0.0316 µM (curve of first compound, second compound 0.0949 µM); above 10 µM (curve of first compound, second compound 0.3 µM). Besides, the viability, T/C is 35% (second compound 0.000949 µM, first compound 0.0316 µM); 39.9% (second compound 0.000949 µM, first compound 0.1 µM); 40.9% (second compound 0.000949 µM, first compound 0.316 µM); 50.3% (second compound 0.000949 µM, first compound 1 µM); 48.3% (second compound 0.000949 µM, first compound 3.16 µM); 109% (second compound 0.000949 µM, first compound 10 µM). Besides, the viability, T/C by setting is: (second compound 0.003 µM, first compound 0.0316 µM) 44.6%; (second compound 0.003 µM, first compound 0.1 µM) 44.1%; (second compound 0.003 µM, first compound 0.316 µM) 42.8%; (second compound 0.003 µM, first compound 1 µM) 43.7%; (second compound 0.003 µM, first compound 3.16 µM) 57.7%; (second compound 0.003 µM, first compound 10 µM) 92%. Besides, the viability, T/C by setting is: (second compound 0.00949 µM, first compound 0.0316 µM) 54.8%; (second compound 0.00949 µM, first compound 0.1 µM) 43.4%; (second compound 0.00949 µM, first compound 0.316 µM) 40.3%; (second compound 0.00949 µM, first compound 1 µM) 42.8%; (second compound 0.00949 µM, first compound 3.16 µM) 63.7%; (second compound 0.00949 µM, first compound 10 µM) 84.7%. For the same molecule, the viability, T/C was 48.3% (second compound 0.03 µM, first compound 0.0316 µM); 39.7% (second compound 0.03 µM, first compound 0.1 µM); 38.4% (second compound 0.03 µM, first compound 0.316 µM); 52.5% (second compound 0.03 µM, first compound 1 µM); 83.4% (second compound 0.03 µM, first compound 3.16 µM); 94.6% (second compound 0.03 µM, first compound 10 µM). The viability, T/C is 48.9% (second compound 0.0949 µM, first compound 0.0316 µM); 51.1% (second compound 0.0949 µM, first compound 0.1 µM); 47.5% (second compound 0.0949 µM, first compound 0.316 µM); 55.4% (second compound 0.0949 µM, first compound 1 µM); 88% (second compound 0.0949 µM, first compound 3.16 µM); 117% (second compound 0.0949 µM, first compound 10 µM). For the same molecule, the viability, T/C is 53.8% (second compound 0.3 µM, first compound 0.0316 µM); 54.5% (second compound 0.3 µM, first compound 0.1 µM); 53.6% (second compound 0.3 µM, first compound 0.316 µM); 66.4% (second compound 0.3 µM, first compound 1 µM); 85.5% (second compound 0.3 µM, first compound 3.16 µM); 119% (second compound 0.3 µM, first compound 10 µM).

As to `CCc1c2c(nc3ccc(O)cc13)-c1cc3c(c(=O)n1C2)COC(=O)[C@]3(O)CC`, the viability, T/C is, setting by setting: (compound 0.000949 µM) 106% [middle of 4 runs]; (compound 0.003 µM) 107% (2×) and 119% and 122%. Moreover, the 50% inhibitory concentration (IC50) (curve of compound) was above 0.3 µM.

Regarding `Cc1nc(N2CCC3(CC2)COC(C)C3N)c(CO)nc1Sc1ccnc(N)c1Cl` (stereo unspecified), the viability, T/C was 93.8% and 100% (2×) and 88.5% (compound 0.0316 µM); 94.9% [middle of 4 runs] (compound 0.316 µM); 102% [middle of 4 runs] (compound 1 µM). Also, the IC50 (curve of compound) was above 10 µM.

Values taken from PubChem BioAssay AID2060905 (Molecular Pharmacology Branch, DTP, NCI, 2025).
